Data from PubChem BioAssay (NCI).
Values joined by “and” are separate entries in the source; they are usually repeats but may differ in a detail not shown here. Identical values can stand only once.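 Exposure lasted 48 hours, with cells grown in 96-well plates and compounds tested at five concentrations. GI50 marks 50% less growth. TGI is the concentration that stops growth completely.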

What was measured:
Assay in all cases: inhibition of tumour cell growth, NCI panel, 48 h
786-0 renal = test system: 786-0 renal
A498 renal = test system: A498 renal
A549 NSCLC = test system: A549 NSCLC
ACHN renal = test system: ACHN renal
CAKI-1 renal = test system: CAKI-1 renal
CCRF-CEM leukemia = test system: CCRF-CEM leukemia
COLO 205 colon = test system: COLO 205 colon
DLD-1 colon = test system: DLD-1 colon
DMS 114 small cell lung = test system: DMS 114 small cell lung
DMS 273 small cell lung = test system: DMS 273 small cell lung
EKVX NSCLC = test system: EKVX NSCLC
HCC-2998 colon = test system: HCC-2998 colon
HCT-116 colon = test system: HCT-116 colon
HCT-15 colon = test system: HCT-15 colon
HL-60(TB) leukemia = test system: HL-60(TB) leukemia
HOP-18 NSCLC = test system: HOP-18 NSCLC
HOP-62 NSCLC = test system: HOP-62 NSCLC
HOP-92 NSCLC = test system: HOP-92 NSCLC
HT29 colon = test system: HT29 colon
IGROV1 ovarian = test system: IGROV1 ovarian
K-562 leukemia = test system: K-562 leukemia
KM12 colon = test system: KM12 colon
KM20L2 colon = test system: KM20L2 colon
LOX IMVI melanoma = test system: LOX IMVI melanoma
LXFL 529 NSCLC = test system: LXFL 529 NSCLC
M14 melanoma = test system: M14 melanoma
M19-MEL melanoma = test system: M19-MEL melanoma
MALME-3M melanoma = test system: MALME-3M melanoma
MOLT-4 leukemia = test system: MOLT-4 leukemia
NCI-H226 lung = test system: NCI-H226 lung
NCI-H23 lung = test system: NCI-H23 lung
NCI-H460 lung = test system: NCI-H460 lung
NCI-H522 lung = test system: NCI-H522 lung
OVCAR-3 ovarian = test system: OVCAR-3 ovarian
OVCAR-4 ovarian = test system: OVCAR-4 ovarian
OVCAR-5 ovarian = test system: OVCAR-5 ovarian
OVCAR-8 ovarian = test system: OVCAR-8 ovarian
RPMI-8226 leukemia = test system: RPMI-8226 leukemia
RXF 393 renal = test system: RXF 393 renal
SF-268 CNS = test system: SF-268 CNS
SF-295 CNS = test system: SF-295 CNS
SF-539 CNS = test system: SF-539 CNS
SK-MEL-2 melanoma = test system: SK-MEL-2 melanoma
SK-MEL-28 melanoma = test system: SK-MEL-28 melanoma
SK-MEL-5 melanoma = test system: SK-MEL-5 melanoma
SK-OV-3 ovarian = test system: SK-OV-3 ovarian
SN12C renal = test system: SN12C renal
SNB-19 CNS = test system: SNB-19 CNS
SNB-78 CNS = test system: SNB-78 CNS
SR leukemia = test system: SR leukemia
SW-620 colon = test system: SW-620 colon
TK-10 renal = test system: TK-10 renal
U251 CNS = test system: U251 CNS
UACC-257 melanoma = test system: UACC-257 melanoma
UACC-62 melanoma = test system: UACC-62 melanoma
UO-31 renal = test system: UO-31 renal
XF 498 CNS = test system: XF 498 CNS

With `COc1cc2c(c(OC)c1OC)-c1ccc(SC)c(=O)cc1C(CC(=O)Oc1ccc(F)cc1)C2` (configuration not stated) the GI50 (786-0 renal) was 325 nM, the TGI (786-0 renal) was 75000 nM and > 100000 nM and the GI50 (A498 renal) was 43.2 nM. The GI50 (A549 NSCLC) was 391 nM, the GI50 (ACHN renal) was 587 nM and the TGI (ACHN renal) was 75000 nM and > 100000 nM. For the same compound, the GI50 (CAKI-1 renal) was 1900 nM, the TGI (CAKI-1 renal) was 10000 nM and > 100000 nM and the GI50 (CCRF-CEM leukemia) was 367 nM. The TGI (CCRF-CEM leukemia) was 27500 nM and > 100000 nM, the GI50 (COLO 205 colon) was 307 nM and the TGI (COLO 205 colon) was 305 nM and 1030 nM. The TGI (DLD-1 colon) was 75000 nM and 10100 nM, the GI50 (DMS 114 small cell lung) was 32.5 nM and the GI50 (DMS 273 small cell lung) was 262 nM. The GI50 (EKVX NSCLC) was 981 nM, the TGI (EKVX NSCLC) was 75000 nM and > 100000 nM and the GI50 (HCC-2998 colon) was 161 nM. The TGI (HCC-2998 colon) was 325 nM and 460 nM, the GI50 (HCT-116 colon) was 323 nM and the TGI (HCT-116 colon) was 306 nM and 1080 nM. For the same compound, the GI50 (HCT-15 colon) was 384 nM, the TGI (HCT-15 colon) was 989 nM and 2860 nM and the TGI (HL-60(TB) leukemia) was 768 nM. The GI50 (HOP-18 NSCLC) was over 100000 nM, the TGI (HOP-18 NSCLC) was 75000 nM and > 100000 nM and the GI50 (HOP-62 NSCLC) was 410 nM. The TGI (HOP-62 NSCLC) was 54600 nM and 49600 nM, the GI50 (HOP-92 NSCLC) was 1910 nM and the TGI (HOP-92 NSCLC) was 75000 nM and 97700 nM. For the same compound, the GI50 (HT29 colon) was 258 nM, the TGI (HT29 colon) was 392 nM and 675 nM and the GI50 (IGROV1 ovarian) was 293 nM. For the same compound, the TGI (IGROV1 ovarian) was 75000 nM and > 100000 nM, the GI50 (K-562 leukemia) was 351 nM and the TGI (K-562 leukemia) was 75000 nM and > 100000 nM. For the same compound, the TGI (KM12 colon) was 2370 nM, the GI50 (KM20L2 colon) was 189 nM and the TGI (KM20L2 colon) was 239 nM and 363 nM. For the same compound, the GI50 (LOX IMVI melanoma) was 392 nM, the TGI (LOX IMVI melanoma) was 8260 nM and 10800 nM and the GI50 (LXFL 529 NSCLC) was 507 nM. For the same compound, the TGI (M14 melanoma) was 14400 nM, the GI50 (M19-MEL melanoma) was 338 nM and the TGI (M19-MEL melanoma) was 14100 nM and 23100 nM. The TGI (MALME-3M melanoma) was 75000 nM and > 100000 nM, the GI50 (MOLT-4 leukemia) was 518 nM and the TGI (MOLT-4 leukemia) was 27700 nM and > 100000 nM. The GI50 (NCI-H226 lung) was 201 nM, the TGI (NCI-H226 lung) was 612 nM and 677 nM and the GI50 (NCI-H23 lung) was 287 nM. The TGI (NCI-H23 lung) was 667 nM and 1040 nM, the GI50 (NCI-H460 lung) was 346 nM and the TGI (NCI-H460 lung) was 1830 nM and 1140 nM. For the same compound, the GI50 (NCI-H522 lung) was 217 nM, the TGI (NCI-H522 lung) was 310 nM and 610 nM and the TGI (OVCAR-3 ovarian) was 608 nM. For the same compound, the GI50 (OVCAR-4 ovarian) was 5400 nM, the TGI (OVCAR-4 ovarian) was 75000 nM and > 100000 nM and the GI50 (OVCAR-5 ovarian) was 973 nM. The TGI (OVCAR-5 ovarian) was 75000 nM and > 100000 nM, the GI50 (OVCAR-8 ovarian) was 280 nM and the TGI (RPMI-8226 leukemia) was 12200 nM and 11000 nM. For the same compound, the GI50 (RXF 393 renal) was 42.6 nM, the GI50 (SF-268 CNS) was 461 nM and the TGI (SF-268 CNS) was 75000 nM and 15000 nM. For the same compound, the GI50 (SF-295 CNS) was 286 nM, the TGI (SF-295 CNS) was 75000 nM and > 100000 nM and the TGI (SF-539 CNS) was 656 nM. The GI50 (SK-MEL-2 melanoma) was 449 nM, the TGI (SK-MEL-2 melanoma) was 910 nM and 4170 nM and the TGI (SK-MEL-28 melanoma) was over 100000 nM. For the same compound, the GI50 (SK-MEL-5 melanoma) was 293 nM, the TGI (SK-MEL-5 melanoma) was 1100 nM and 3380 nM and the GI50 (SK-OV-3 ovarian) was 40 nM. For the same compound, the TGI (SK-OV-3 ovarian) was 24900 nM and 11600 nM, the TGI (SN12C renal) was 20200 nM and 7790 nM and the GI50 (SNB-19 CNS) was 960 nM. For the same compound, the TGI (SNB-19 CNS) was 75000 nM and > 100000 nM, the GI50 (SNB-78 CNS) was 89.1 nM and the TGI (SNB-78 CNS) was 75000 nM and 73600 nM. The GI50 (SR leukemia) was 124 nM, the TGI (SR leukemia) was 3140 nM and 24000 nM and the GI50 (SW-620 colon) was 358 nM. The TGI (SW-620 colon) was 11100 nM and > 100000 nM, the GI50 (TK-10 renal) was 21500 nM and the TGI (TK-10 renal) was 75000 nM and > 100000 nM. For the same compound, the GI50 (U251 CNS) was 410 nM, the TGI (U251 CNS) was 1410 nM and 2350 nM and the GI50 (UACC-257 melanoma) was 264 nM. For the same compound, the TGI (UACC-257 melanoma) was 75000 nM and > 100000 nM, the GI50 (UACC-62 melanoma) was 50.9 nM and the TGI (UACC-62 melanoma) was 730 nM and 539 nM. The GI50 (UO-31 renal) was 2490 nM, the TGI (UO-31 renal) was 75000 nM and > 100000 nM and the GI50 (XF 498 CNS) was 442 nM. The TGI (XF 498 CNS) was 7030 nM and 5130 nM.
